Assay results: patent publication US6908734B2, “Sulfated CCR5 peptides for HIV-1 infection” (priority 2000, dated 2005)
Where no end group is shown, it is not given here. [ ]: non-standard residue; d: D form. The star is where a group is joined. Biotin = O=C1N[C@H]2[C@H](CS[C@H]2CCCCC(=O)*)N1; sY = N[C@@H](Cc1ccc(OS(=O)(=O)O)cc1)C(=O)O; pY = N[C@@H](Cc1ccc(OP(=O)(O)O)cc1)C(=O)O

Experiments:
gp120JR-FL/CD4-IgG2 = assay: CCR5 Nt peptide ELISA with gp120JR-FL/CD4-IgG2; assay type: binding, HIV-1; conditions: peptide 1 μg/ml on streptavidin plate
Experimental: (§2) Streptavidin-coated ELISA plates (Pierce, Rockford, Ill.) were blocked with D-PBS/5% BSA for 2 hours at room temperature then washed three times with assay buffer (D-PBS/0.5% Tween 20/1% Fetal Bovine Serum/2% BSA). Plates were then contacted with sulfo- or phospho-peptides (1 μg/ml) for 1 hour at room temperature and washed three times with assay buffer. […] The plates were developed using the TMB substrate as described above.

gp120DH123/CD4-IgG2 = assay: CCR5 Nt peptide ELISA with gp120DH123/CD4-IgG2; assay type: binding, HIV-1; conditions: peptide 1 μg/ml on streptavidin plate
Experimental: as §2

gp120LAI/CD4-IgG2 = gp120LAI/CD4-IgG2 (Human immunodeficiency virus type 1 group M subtype B, UniProt P03377); conditions: peptide 1 μg/ml on streptavidin plate
Experimental: Streptavidin-coated ELISA plates (Pierce, Rockford, Ill.) were blocked with D-PBS/5% BSA for 2 hours at room temperature then washed three times with assay buffer (D-PBS/0.5% Tween 20/1% Fetal Bovine Serum/2% BSA). Plates were then contacted with sulfo- or phospho-peptides (1 μg/ml) for 1 hour at room temperature and washed three times with assay buffer. Mixtures of CD4-IgG2 (50 nM) and purified gp120 or gp120-containing supernatants in a 1:4 molar ratio were added to the plates for 1 hour at room temperature. Plates were washed three times and (HRP)-conjugated goat anti-human IgG was used to detect the presence of bound CD4-IgG2. The plates were developed using the TMB substrate as described above. Gp120/CD4-IgG2 binding to the peptides was normalized for CD4-IgG2binding to the mutant gp120 proteins.

PA8 = assay: ELISA: direct binding of anti-CCR5 MAb PA8 to peptides; design: species or system murine
Experimental: (§1) In a competition ELISA, peptides were captured onto the plates as described above. Inhibitor or assay buffer was added for 1 h prior to addition of gp120JR-FL/CD4-IgG2 complex (1 nM) for an additional h at room temperature. The assay was then completed as described above. Direct binding of anti-CCR5 murine MAbs to the peptides was examined as described above except that MAb was substituted for gp120/CD4-IgG2 complex and a goat anti-mouse HRP-coupled antibody was used for detection.

PA10 = assay: ELISA: direct binding of anti-CCR5 MAb PA10 to peptides; design: species or system murine
Experimental: as §1

PA11 = assay: ELISA: direct binding of anti-CCR5 MAb PA11 to peptides; design: species or system murine
Experimental: as §1

PA12 = assay: ELISA: direct binding of anti-CCR5 MAb PA12 to peptides; design: species or system murine
Experimental: as §1

PA14 = assay: ELISA: direct binding of anti-CCR5 MAb PA14 to peptides; design: species or system murine
Experimental: as §1

CD4-IgG2 = CD4-IgG2 (Homo sapiens, UniProt P01730+P01834+P01859); assay: CCR5 Nt peptide ELISA with CD4-IgG2 alone; assay type: binding
Experimental: as §2

[1] = tested on: V3 loop-deleted gp120JR-FL/CD4-IgG2; assay: CCR5 Nt peptide ELISA with V3 loop-deleted gp120JR-FL/CD4-IgG2; assay type: binding, HIV-1
Experimental: as §2

[2] = tested on: gp120JR-FL alanine mutants/CD4-IgG2; assay: ELISA: binding of gp120JR-FL alanine mutant/CD4-IgG2 complexes to sulfopeptide 2-18; design: species or system HIV-1
Experimental: Mutant gp120 proteins were generated using the QuickChange Kit from Stratagene (San-Diego, Calif.). Gp120JR-FL, cloned into the pPPI4 expression vector [4], served as the template for site directed mutagenesis. Nucleotide sequencing was performed to ascertain the presence of the appropriate mutation in the gp120 coding sequence. 293T cells were calcium phosphate transfected with the different mutant gp120 expression constructs. Supernatants containing soluble gp120 proteins were harvested and cleared of debris by centrifugation 24 hours post-transfection. Quantification of gp120 was performed by ELISA as previously described). Briefly, 293T supernatants were boiled for 5 minutes and denatured gp120 was captured on an ELISA plate coated with D7324 (International Enzymes Inc. Fallbrook, Calif.), a MAb that recognizes a 15 residue linear epitope in the carboxy-terminal end of gp120. Captured gp120 was detected by a mixture of anti-gp120 MAbs B12 and B13 [40], followed by incubation with a horseradish peroxidase-conjugated (HRP) anti-mouse IgG antibody (Amersham Pharmacia, Piscataway, N.J.). Optical density (O.D.) was measured at 450 nm using the ImmunoPure TMB Substrate kit (Pierce, Rockford, Ill.).
CD4-IgG2 binding to non-denatured mutant gp120 proteins also was measured. Plates coated with D7324 were used to capture native gp120 from supernatants of transiently transfected 293T cells. CD4-IgG2 (50 nM) was added to the plates and its binding was detected using an HRP-conjugated goat anti-human IgG and TMB substrate as described above.

[3] = molecular target: T1, gp120JR-FL/CD4-IgG2 binding to the sulfopeptide 2-18 (Homo sapiens, UniProt P51681); assay: Competition ELISA: gp120JR-FL/CD4-IgG2 binding to sulfopeptide 2-18; design: species or system HIV-1; conditions: complex 1 nM, up to supraphysiologic concentrations
T1 construct: a peptide spanning CCR5 residues 2-18 and containing sulfotyrosines in positions 10 and 14; host or cells: peptide synthetic
Experimental: as §1

[4] = molecular target: T2, gp120/CD4 binding to cell surface CCR5 (Homo sapiens, UniProt P51681); conditions: cited from earlier work
T2 construct: Supernatants containing soluble gp120 proteins were harvested; made in house; host or cells: gp120: 293T supernatants; CCR5: L1.2-CCR5+ cells
T2 sequence (P51681 whole entry): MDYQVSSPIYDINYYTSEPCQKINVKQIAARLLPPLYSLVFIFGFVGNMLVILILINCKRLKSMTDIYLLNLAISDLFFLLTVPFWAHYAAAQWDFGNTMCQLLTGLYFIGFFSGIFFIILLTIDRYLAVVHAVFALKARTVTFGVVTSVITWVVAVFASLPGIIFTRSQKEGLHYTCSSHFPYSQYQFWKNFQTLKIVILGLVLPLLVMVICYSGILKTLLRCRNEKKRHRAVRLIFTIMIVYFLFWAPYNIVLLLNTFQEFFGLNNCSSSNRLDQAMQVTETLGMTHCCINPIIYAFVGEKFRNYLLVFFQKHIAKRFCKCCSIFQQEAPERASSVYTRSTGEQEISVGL

Molecule	Binding of gp120JR-FL/CD4-IgG2 to peptide (ELISA) (gp120JR-FL/CD4-IgG2)	Binding of gp120DH123/CD4-IgG2 to peptide (ELISA) (gp120DH123/CD4-IgG2)	Binding of gp120LAI/CD4-IgG2 to peptide (ELISA) (gp120LAI/CD4-IgG2)	Binding of PA8 to peptide (ELISA) (PA8)	Binding of PA10 to peptide (ELISA) (PA10)	Binding of PA11 to peptide (ELISA) (PA11)	Binding of PA12 to peptide (ELISA) (PA12)	Binding of PA14 to peptide (ELISA) (PA14)	Binding of CD4-IgG2 alone to peptide (ELISA) (CD4-IgG2)	Binding of V3 loop-deleted gp120JR-FL/CD4-IgG2 to peptide (ELISA) [1]	Effect of V3 loop crown residues on gp120 binding to the sulfopeptide ([2]; alanine mutants in the crown of the V3 loop, including the GPGR motif)	Decrease of complex binding to the sulfopeptide by C4 alanine substitutions ([2]; alanine substitutions of R419, I420, K421, Q422 and R444)	Effect of alanine substitutions of R440 and R469 on complex binding ([2]; gp120 R440A, R469A)	Decrease of complex binding to the peptide by V3 loop stem alanine mutants ([2]; gp120 alanine mutants R298, N301, T303, I322, D324, I325, R326, normalized for CD4-IgG2 binding) [fold]	Effect of alanine substitutions in other regions of gp120 on complex-peptide interactions ([2]; other regions of gp120)	Inhibition of gp120JR-FL/CD4-IgG2 binding to the sulfopeptide 2-18 [3]	Block of gp120/CD4 binding to CCR5 [4]
2-18(P): analogous CCR5 Nt phosphopeptide, residues 2-18, phosphotyrosines in positions 10 and 14, GAG spacer, biotinylated lysine (DYQVSSPI[pY]DIN[pY]YTSEGAGK(Biotin))	No binding was observed	No binding was observed	No binding was observed	avidly binds	moderately	weakly	undetectable	does not recognize									
2-18: peptide spanning CCR5 residues 2-18, sulfotyrosines in positions 10 and 14, carboxy terminal GAG spacer and biotinylated lysine (DYQVSSPI[sY]DIN[sY]YTSEGAGK(Biotin))	strongest binding		did not measurably bind	avidly binds	binds avidly	binds moderately	weak	does not recognize	did not measurably bind	did not measurably bind	no effect	5-10 fold	increased complex binding	> 10	None of the alanine substitutions that we introduced in the other regions of gp120 significantly affected		
Cc1ccc(-c2ccc3c(c2)C=C(C(=O)Nc2ccc(C[N+](C)(C)C4CCOCC4)cc2)CCC3)cc1.[Cl-] [TAK-779]																not inhibited	block
